{"source": "paper PMC4001115", "about": "(International journal of toxicology, 2014)", "key": {"[1]": {"test": "Toxicokinetics: plasma DAC by LC-MS/MS after oral gavage", "type": "in vivo, CD-1 mice", "conditions": "for Cmax / AUC: plasma, po; for AUC: AUCfit"}, "[2]": {"test_system": "bone marrow polychromatic erythrocytes (PCEs)", "test": "Bone marrow micronucleus analysis", "type": "in vivo, CD-1 mice", "conditions": "DAC 1.0 mg/kg; for Number of MPCE/1000 PCE (Mean +/− SD): single animal"}, "beagle dog": {"test_system": "beagle dog", "conditions": "single intravenous injections up to 1 g/kg; cited from earlier work"}, "CD-1 mice": {"test_system": "CD-1 mice", "test": "Microscopic findings", "type": "in vivo", "conditions": "THU/DAC 167/0.0 mg/kg; for Cytoplasmic Alteration, MK (Minimal): bone marrow"}, "monkey": {"test_system": "monkey", "conditions": "single intravenous injections up to 1 g/kg; cited from earlier work"}, "[3]": {"conditions": "mice, 100 mg/kg po, cited from earlier work"}, "[4]": {"conditions": "male, CD-1, mouse, 0.2 mg/kg, males, THU/DAC 167/0.2 mg/kg, Day 1"}, "[5]": {"conditions": "male, CD-1, mouse, 0.2 mg/kg, males, THU/DAC 167/0.2 mg/kg, Day 58"}, "[6]": {"conditions": "male, CD-1, mouse, 0.4 mg/kg, males, THU/DAC 167/0.4 mg/kg, Day 1"}, "[7]": {"conditions": "male, CD-1, mouse, 0.4 mg/kg, males, THU/DAC 167/0.4 mg/kg, Day 58"}, "[8]": {"conditions": "male, CD-1, mouse, 1 mg/kg, males, THU/DAC 0/1.0 mg/kg, Day 1"}, "[9]": {"conditions": "male, CD-1, mouse, 1 mg/kg, males, THU/DAC 0/1.0 mg/kg, Day 58"}, "[10]": {"conditions": "male, CD-1, mouse, 1 mg/kg, males, THU/DAC 167/1.0 mg/kg, Day 1"}, "[11]": {"conditions": "male, CD-1, mouse, 1 mg/kg, males, THU/DAC 167/1.0 mg/kg, Day 58"}}, "data": [{"smiles": "Nc1ncn([C@H]2C[C@H](O)[C@@H](CO)O2)c(=O)n1", "note": "[DAC, 5-aza-2’-deoxycytidine]", "values": [{"measurement": "DAC detectable in plasma through (post dose)", "setting": "[1]; both, CD-1, mouse, in vivo", "result": 180, "unit": "min"}, {"measurement": "DAC exposure, female mice compared to males", "setting": "[1]; both, CD-1, mouse, in vivo", "result": "~ 2 fold"}, {"measurement": "Cmax", "setting": "[1]; female, CD-1, mouse, 0.2 mg/kg, females, THU/DAC 167/0.2 mg/kg, Day 1", "result": 1900, "unit": "nM"}, {"measurement": "Cmax", "setting": "[1]; female, CD-1, mouse, 0.2 mg/kg, females, THU/DAC 167/0.2 mg/kg, Day 58", "result": 960, "unit": "nM"}, {"measurement": "Cmax", "setting": "[1]; female, CD-1, mouse, 0.4 mg/kg, females, THU/DAC 167/0.4 mg/kg, Day 1", "result": 2780, "unit": "nM"}, {"measurement": "Cmax", "setting": "[1]; female, CD-1, mouse, 0.4 mg/kg, females, THU/DAC 167/0.4 mg/kg, Day 58", "result": 1650, "unit": "nM"}, {"measurement": "Cmax", "setting": "[1]; female, CD-1, mouse, 1 mg/kg, females, THU/DAC 0/1.0 mg/kg, Day 1", "result": 2050, "unit": "nM"}, {"measurement": "Cmax", "setting": "[1]; female, CD-1, mouse, 1 mg/kg, females, THU/DAC 0/1.0 mg/kg, Day 58", "result": 1230, "unit": "nM"}, {"measurement": "DAC detectable in plasma through (post dose)", "setting": "[1]; male, CD-1, mouse, in vivo", "result": 120, "unit": "min"}, {"measurement": "AUC", "setting": "[1]; [4]", "result": 1.57, "unit": "µM·h"}, {"measurement": "AUC", "setting": "[1]; [5]", "result": 1.25, "unit": "µM·h"}, {"measurement": "Cmax", "setting": "[1]; [4]", "result": 1180, "unit": "nM"}, {"measurement": "Cmax", "setting": "[1]; [5]", "result": 700, "unit": "nM"}, {"measurement": "AUC", "setting": "[1]; [6]", "result": 3.08, "unit": "µM·h"}, {"measurement": "AUC", "setting": "[1]; [7]", "result": 2.11, "unit": "µM·h"}, {"measurement": "Cmax", "setting": "[1]; [6]", "result": 2620, "unit": "nM"}, {"measurement": "Cmax", "setting": "[1]; [7]", "result": 980, "unit": "nM"}, {"measurement": "AUC", "setting": "[1]; [8]", "result": 0.864, "unit": "µM·h"}, {"measurement": "AUC", "setting": "[1]; [9]", "result": 0.976, "unit": "µM·h"}, {"measurement": "AUC", "setting": "[1]; [10]", "result": 7.65, "unit": "µM·h"}, {"measurement": "AUC", "setting": "[1]; [11]", "result": 5.87, "unit": "µM·h"}, {"measurement": "Cmax", "setting": "[1]; [8]", "result": 1750, "unit": "nM"}, {"measurement": "Cmax", "setting": "[1]; [9]", "result": 1200, "unit": "nM"}, {"measurement": "Cmax", "setting": "[1]; [10]", "result": 5810, "unit": "nM"}, {"measurement": "Cmax", "setting": "[1]; [11]", "result": 4740, "unit": "nM"}, {"measurement": "time of plasma DAC Cmax", "setting": "[1]; oral DAC with or without THU", "result": "≤ 1", "unit": "h"}, {"measurement": "Number of MPCE/PCE Scored", "setting": "[2]; F", "result": "^*73 / 2000"}, {"measurement": "PCE/Total Erythrocytes (Mean+/−SD)", "setting": "[2]; F", "result": "0.168±0.05"}, {"measurement": "PCE/Total Erythrocytes, Change from Control", "setting": "[2]; F", "result": "−65", "unit": "%"}, {"measurement": "Number of MPCE/1000 PCE (Mean +/− SD)", "setting": "[2]; F", "result": "36.5 ± ^1SD"}, {"measurement": "Number of MPCE/PCE Scored", "setting": "[2]; M", "result": "^*41 / 2000"}, {"measurement": "PCE/Total Erythrocytes (Mean+/−SD)", "setting": "[2]; M", "result": "0.127±0.06"}, {"measurement": "PCE/Total Erythrocytes, Change from Control", "setting": "[2]; M", "result": "−73", "unit": "%"}, {"measurement": "Number of MPCE/1000 PCE (Mean +/− SD)", "setting": "[2]; M", "result": "20.5 ± ^1SD"}]}, {"smiles": "O=C1NC(O)CCN1[C@@H]1O[C@H](CO)[C@@H](O)[C@H]1O", "note": "(stereo partly drawn) [THU, tetrahydrouridine]", "values": [{"measurement": "toxic effects", "setting": "beagle dog", "result": "no notable toxic effects"}, {"measurement": "Cytoplasmic Alteration, MK (Minimal)", "setting": "CD-1 mice; females, Day 59", "result": "0/10"}, {"measurement": "Cytoplasmic Alteration, MK (Minimal)", "setting": "CD-1 mice; males, Day 59", "result": "0/10"}, {"measurement": "Bone Marrow Cytoplasmic Alteration, MK, Minimal", "setting": "CD-1 mice; females, Day 31", "result": "0/6"}, {"measurement": "Bone Marrow Hypocellularity, Marked", "setting": "CD-1 mice; females, Day 31", "result": "0/6"}, {"measurement": "Bone Marrow Hypocellularity, Moderate", "setting": "CD-1 mice; females, Day 31", "result": "0/6"}, {"measurement": "Duodenum Apoptosis, Minimal-Mild", "setting": "CD-1 mice; females, Day 31", "result": "0/6"}, {"measurement": "Ileum Apoptosis, Minimal-Mild", "setting": "CD-1 mice; females, Day 31", "result": "0/6"}, {"measurement": "Jejunum Apoptosis, Minimal-Mild", "setting": "CD-1 mice; females, Day 31", "result": "0/6"}, {"measurement": "Spleen Proliferation, MK, Red Pulp, Minimal-Mild", "setting": "CD-1 mice; females, Day 31", "result": "0/6"}, {"measurement": "Thymus Depletion, Lymphoid Cortex, Marked", "setting": "CD-1 mice; females, Day 31", "result": "0/5"}, {"measurement": "Thymus Depletion, Lymphoid Cortex, Mild-Moderate", "setting": "CD-1 mice; females, Day 31", "result": "0/5"}, {"measurement": "Uterus Atrophy, Mild", "setting": "CD-1 mice; females, Day 31", "result": "0/6"}, {"measurement": "Bone Marrow Hypocellularity, Marked", "setting": "CD-1 mice; females, Day 59", "result": "0/10"}, {"measurement": "Bone Marrow Hypocellularity, Moderate", "setting": "CD-1 mice; females, Day 59", "result": "0/10"}, {"measurement": "Duodenum Apoptosis, Minimal-Mild", "setting": "CD-1 mice; females, Day 59", "result": "0/10"}, {"measurement": "Ileum Apoptosis, Minimal-Mild", "setting": "CD-1 mice; females, Day 59", "result": "0/10"}, {"measurement": "Jejunum Apoptosis, Minimal-Mild", "setting": "CD-1 mice; females, Day 59", "result": "0/10"}, {"measurement": "Spleen Proliferation, MK, Red Pulp, Minimal-Mild", "setting": "CD-1 mice; females, Day 59", "result": "0/10"}, {"measurement": "Uterus Atrophy, Mild", "setting": "CD-1 mice; females, Day 59", "result": "0/10"}, {"measurement": "Bone Marrow Cytoplasmic Alteration, MK, Minimal", "setting": "CD-1 mice; males, Day 31", "result": "0/6"}, {"measurement": "Bone Marrow Hypocellularity, Marked", "setting": "CD-1 mice; males, Day 31", "result": "0/6"}, {"measurement": "Bone Marrow Hypocellularity, Moderate", "setting": "CD-1 mice; males, Day 31", "result": "0/6"}, {"measurement": "Duodenum Apoptosis, Minimal-Mild", "setting": "CD-1 mice; males, Day 31", "result": "0/6"}, {"measurement": "Epididymides Hypospermia, Head, Marked", "setting": "CD-1 mice; males, Day 31", "result": "0/6"}, {"measurement": "Epididymides Hypospermia, Head, Minimal-moderate", "setting": "CD-1 mice; males, Day 31", "result": "0/6"}, {"measurement": "Epididymides Hypospermia, Tail, Mild-moderate", "setting": "CD-1 mice; males, Day 31", "result": "0/6"}, {"measurement": "Ileum Apoptosis, Minimal-Mild", "setting": "CD-1 mice; males, Day 31", "result": "0/6"}, {"measurement": "Jejunum Apoptosis, Minimal-Mild", "setting": "CD-1 mice; males, Day 31", "result": "0/6"}, {"measurement": "Spleen Proliferation, MK, Red Pulp, Minimal-Mild", "setting": "CD-1 mice; males, Day 31", "result": "0/6"}, {"measurement": "Testis Degeneration, Seminiferous Tubules, Marked", "setting": "CD-1 mice; males, Day 31", "result": "0/6"}, {"measurement": "Testis Degeneration, Seminiferous Tubules, Minimal-mild", "setting": "CD-1 mice; males, Day 31", "result": "0/6"}, {"measurement": "Testis Degeneration, Seminiferous Tubules, Moderate", "setting": "CD-1 mice; males, Day 31", "result": "0/6"}, {"measurement": "Thymus Depletion, Lymphoid Cortex, Marked", "setting": "CD-1 mice; males, Day 31", "result": "0/6"}, {"measurement": "Thymus Depletion, Lymphoid Cortex, Mild-Moderate", "setting": "CD-1 mice; males, Day 31", "result": "0/6"}, {"measurement": "Bone Marrow Hypocellularity, Marked", "setting": "CD-1 mice; males, Day 59", "result": "0/10"}, {"measurement": "Bone Marrow Hypocellularity, Moderate", "setting": "CD-1 mice; males, Day 59", "result": "0/10"}, {"measurement": "Duodenum Apoptosis, Minimal-Mild", "setting": "CD-1 mice; males, Day 59", "result": "0/10"}, {"measurement": "Epididymides Hypospermia, Head, Marked", "setting": "CD-1 mice; males, Day 59", "result": "0/10"}, {"measurement": "Epididymides Hypospermia, Head, Moderate", "setting": "CD-1 mice; males, Day 59", "result": "0/10"}, {"measurement": "Epididymides Hypospermia, Tail, Mild-moderate", "setting": "CD-1 mice; males, Day 59", "result": "0/10"}, {"measurement": "Ileum Apoptosis, Minimal-Mild", "setting": "CD-1 mice; males, Day 59", "result": "0/10"}, {"measurement": "Jejunum Apoptosis, Minimal-Mild", "setting": "CD-1 mice; males, Day 59", "result": "0/10"}, {"measurement": "Spleen Proliferation, MK, Red Pulp, Minimal-Mild", "setting": "CD-1 mice; males, Day 59", "result": "0/10"}, {"measurement": "Testis Degeneration, Seminiferous Tubules, Marked", "setting": "CD-1 mice; males, Day 59", "result": "0/10"}, {"measurement": "Testis Degeneration, Seminiferous Tubules, Mild-moderate", "setting": "CD-1 mice; males, Day 59", "result": "0/10"}, {"measurement": "Testis Degeneration, Seminiferous Tubules, Severe", "setting": "CD-1 mice; males, Day 59", "result": "0/10"}, {"measurement": "Thymus Depletion, Lymphoid Cortex, Marked", "setting": "CD-1 mice; males, Day 59", "result": "0/10"}, {"measurement": "Thymus Depletion, Lymphoid Cortex, Mild-Moderate", "setting": "CD-1 mice; males, Day 59", "result": "0/10"}, {"measurement": "toxic effects", "setting": "monkey", "result": "no notable toxic effects"}, {"measurement": "half life", "setting": "[3]", "result": 1.42, "unit": "h"}, {"measurement": "oral bioavailability", "setting": "[3]", "result": 20, "unit": "%"}, {"measurement": "sustained plasma concentrations that inhibit CDA", "setting": "[3]; for several hours", "result": "> 1", "unit": "µg/mL"}]}]}
